Assay results reported in patent US9249108B2, “Multicomponent system of rosuvastatin calcium salt and sorbitol” (BASF SE, priority 2010, dated 2016).

What was measured:
[1] = format: physicochemical
Method: Aqueous Solubility Determination: Approximately 0.5 mL of doubly distilled water is added to 16 to 39 mg of the substance to be measured. The resulting suspension is equilibrated in a temperature-controlled Eppendorf Thermomixer Comfort shaker for 2 h and 24 h at 25° C. at a shaking rate of 600 rpm. After 24 h the solid phase is recovered by filter centrifugation (0.10-μm PVDF membrane) and examined by XRPD. Concentrations in the filtrate after 2 h and 24 h (i.e., saturated solutions) are determined using HPLC. The pH of the saturated solution is determined with a Metrohm 713 pH meter.

[2] = Water uptake under humidity; format: physicochemical

In the case of “Rosuvastatin hemicalcium salt/crystal form D (1:1 co-crystal with D-sorbitol)”, the solubility [1] is reported as “as good as solid forms of Rosuvastatin calcium previously known” and the “water uptake under humidity” value [2] is reported as “less prone to water uptake under humidity”.
